Values after ≈ are worked out from the molar mass of the structure shown. Where two headings read alike, the source gives them in different places.

Holding throughout (assay type): cell-based
For one experiment, the system named is Escherichia coli. Briefly: MIC agar dilution, micro-organism 1 (10418). The note with it: Escherichia coli 10418, read-out: MIC. The method, then:
(§1) Throughout the period of testing the microbial strains were subcultured and incubated for 18-20 hours at 37° C. on a weekly basis. Horse blood agar plates were used to sustain the micro-organisms both prior to and throughout testing. The alkoxylated alkanols listed in Table II below were obtained (these are obtainable from Sigma-Aldrich Company Ltd, Dorset, England), each having a GC purity of at least 97%.
(§2) Molar equivalent concentrations were used to allow comparison between compounds of differing molecular mass. Due to weighing difficulties, any compound in solid form was melted in a water bath prior to dilution. To make ten-times strength concentrations, which takes into account agar dilution, 0.0352 mmol of each compound was weighed into plastic universal bottles and 4 mL of sterile distilled water (SDW) was added. To produce a homogenous emulsion the universals were vortexed; once achieved the emulsions were serial diluted by adding 2 mL to 2 mL of SDW.
(§3) Myristyl alcohol and lauryl alcohol were re-weighed and dissolved in 25 μL of the polar solvent 1-methyl-2-pyrrolidone (M6762; Sigma-Aldrich) in sterile glass universals due to an inability to achieve an even suspension. To maintain an even emulsion in the presence of SDW 37.5 μL of the non-ionic detergent Tween 20 (P1379, Sigma-Aldrich) was also added. 3.9375 mL of SDW was added to these, to create a 4 mL volume; they were vortexed and diluted as before.
(§4) For every 100 mL of Isosensitest agar (IST) (CM0471; Oxoid, Basingstoke, England), 3.1 g of the IST powder was added to 100 mL SDW (as per manufacturer's instructions) and sterilised for 15 minutes at 121° C. Once sterilised, the molten agar was cooled to 50° C. in a water-bath. Subsequently 4.8 g of CCEY powder (BC2160; Bioconnections, Wetherby, England), also known as Brazier's medium, was added to 100 mL SDW for every 100 mL of agar needed. This was then sterilised for 15 minutes at 121° C. Once sterilised the molten agar was cooled to 50° C. in a water-bath and 4 mL of egg-yolk emulsion (S2073; TCS Biosciences Ltd, Buckingham, United Kingdom) and 1 mL of lysed defibrinated horse blood (HB035; TCS Biosciences Ltd, Buckingham, United Kingdom) were also added for every 100 mL needed. Horse blood lysis is achieved by dilution to half concentration with SDW; when fully lysed the mixture will turn dark red in colour.
(§5) 18 mL agar was added to each universal and then poured into sterile Petri dishes. This step creates a 1/10 dilution resulting in agar plates of the required strength. Control plates for each set of strains were created by adding 18 mL of agar to 2 mL of SDW.
(§6) Suspensions of each bacterial species were prepared with a density equal to that of a 0.5 McFarland standard using a densitometer. All suspensions were made using sterile distilled water and fresh 18-20 hour cultures. As a 0.5 McFarland standard contains 1.5×10^8 CFU/mL and the multipoint inoculators applies 1 μL spots of liquid, each bacterial suspension was diluted 1/15 (20 μL suspension to 280 μL sterile distilled water).
(§7) Bacterial suspensions were prepared from fresh 18-24 hour cultures as previously described. 1 μL of each strain was inoculated onto all 100 agar plates containing a different chemical concentration and the 2 control plates. This was done using a multipoint inoculator which inoculates 20 strains per plate. All plates were incubated for 22 hours at 37° C. in aerobic conditions.
(§8) Each plate was examined for bacterial growth after 22 and 48 hours, with each being incubated in between examinations. A positive result was recorded as growth of ≧10 colonies. A negative result was recorded as growth of <10 colonies as this is equivalent to 99.9% inhibition. The lowest concentration of chemical that inhibited growth was recorded as the MIC. The results are recorded in Table IV below, where the numbers are quoted in mmol/L. […]

The next experiment concerns Providencia rettgeri. Briefly: MIC agar dilution, micro-organism 3 (7475). The note with it: Providencia rettgeri 7475, read-out: MIC. The method, then: as §1, §2, §3, §4, §5, §6, §7, §8
Another experiment relates to Steptococcus pyogenes. The experiment is described as follows: MIC agar dilution, micro-organism 11 (8306). The note with it: Steptococcus pyogenes 8306, read-out: MIC. The method, then: as §1, §2, §3, §4, §5, §6, §7, §8
The subject of experiment [1] is Staphylococcus aureus (MRSA). The experiment is described as follows: MIC agar dilution, micro-organism 12 (11939). The note with it: Staphylococcus aureus, MRSA, Staphylococcus aureus (MRSA) 11939, read-out: MIC. The method, then:
as §1, §2, §3, §4, §5, §6, §7, §8

The next experiment relates to Staphylococcus aureus. The experiment is described as follows: MIC agar dilution, micro-organism 13 (6571). The note with it: Staphylococcus aureus, Staphylococcus aureus 6571, read-out: MIC. The method, then:
as §1, §2, §3, §4, §5, §6, §7, §8

For experiment [2], the system named is Staphylococcus epidermidis. The experiment is described as follows: MIC agar dilution, micro-organism 14 (11047). The note with it: Staphylococcus epidermidis 11047, read-out: MIC. The method, then:
as §1, §2, §3, §4, §5, §6, §7, §8

A further experiment deals with Listeria monocytogenes. The experiment is described as follows: MIC agar dilution, micro-organism 15 (11994). The note with it: Listeria monocytogenes 11994, read-out: MIC. The method, then: as §1, §2, §3, §4, §5, §6, §7, §8
The next experiment deals with Enterococcus faecium. The experiment is described as follows: MIC agar dilution, micro-organism 16 (7171). The note with it: Enterococcus faecium 7171, read-out: MIC. The method, then: as §1, §2, §3, §4, §5, §6, §7, §8
A further experiment deals with Enterococcus faecalis. Briefly: MIC agar dilution, micro-organism 17 (775). The note with it: Enterococcus faecalis 775, read-out: MIC. The method, then:
as §1, §2, §3, §4, §5, §6, §7, §8

The subject of the next experiment is Bacillus subtilis. Briefly: MIC agar dilution, micro-organism 18 (9372). The note with it: Bacillus subtilis 9372, read-out: MIC. The method, then:
as §1, §2, §3, §4, §5, §6, §7, §8

The next experiment deals with Candida albicans. The experiment is described as follows: MIC agar dilution, micro-organism 19 (90028). The note with it: Candida albicans 90028, read-out: MIC. The method, then:
as §1, §2, §3, §4, §5, §6, §7, §8

The next experiment has as its system Candida glabrata. Briefly: MIC agar dilution, micro-organism 20 (3943). The note with it: Nakaseomyces glabratus, Candida glabrata 3943, read-out: MIC. The method, then: as §1, §2, §3, §4, §5, §6, §7, §8

`CCCCCCCCCCCCCCCCCCO` [S0, 1-Octadecanol, reference compound]: the MIC with Escherichia coli (22 hrs) is more than 880 µM; with Escherichia coli (48 hrs), more than 880 µM; in the experiment with Providencia rettgeri (22 hrs), more than 880 µM; in the experiment with Providencia rettgeri (48 hrs) it was more than 880 µM; with Steptococcus pyogenes (22 h, 22 hrs), 880 µM (≈ 238 µg/mL); with Steptococcus pyogenes (48 h, 48 hrs), 880 µM (≈ 238 µg/mL). Besides, the MIC in [1] (22 h, 22 hrs) was more than 880 µM; in experiment [1] (48 h, 48 hrs), more than 880 µM; in the experiment on Staphylococcus aureus (22 h, 22 hrs), more than 880 µM; with Staphylococcus aureus (48 h, 48 hrs), more than 880 µM; in [2] (22 hrs) it was more than 880 µM; in experiment [2] (48 hrs), more than 880 µM. Further, the MIC with Listeria monocytogenes (22 hrs), with Listeria monocytogenes (48 hrs), in the experiment with Enterococcus faecium (22 hrs), in the experiment on Enterococcus faecium (48 hrs), with Enterococcus faecalis (22 hrs) and in the experiment with Enterococcus faecalis (48 hrs) was more than 880 µM each time. The MIC in the experiment with Bacillus subtilis (22 hrs) was more than 880 µM; in the experiment with Bacillus subtilis (48 hrs), more than 880 µM; in the experiment on Candida albicans (22 hrs), more than 880 µM; in the experiment with Candida albicans (48 hrs) it was more than 880 µM; in the experiment on Candida glabrata (22 h, 22 hrs), 880 µM (≈ 238 µg/mL); in the experiment on Candida glabrata (48 h, 48 hrs), 880 µM (≈ 238 µg/mL).

`CCCCCCCCCCCCCCO` [M0, 1-Tetradecanol, reference compound]: the MIC in the experiment with Escherichia coli (22 hrs) was more than 880 µM; with Escherichia coli (48 hrs), more than 880 µM; with Providencia rettgeri (22 hrs), more than 880 µM; with Providencia rettgeri (48 hrs) it was more than 880 µM; with Steptococcus pyogenes (22 h, 22 hrs) it was 220 µM (≈ 47.2 µg/mL); in the experiment with Steptococcus pyogenes (48 h, 48 hrs), 220 µM (≈ 47.2 µg/mL). Moreover, the MIC in [1] (22 h, 22 hrs) came out at 110 µM (≈ 23.6 µg/mL); in experiment [1] (48 h, 48 hrs) it was 110 µM (≈ 23.6 µg/mL); in the experiment on Staphylococcus aureus (22 h, 22 hrs), 440 µM (≈ 94.3 µg/mL); in the experiment with Staphylococcus aureus (48 h, 48 hrs) it was 440 µM (≈ 94.3 µg/mL); in experiment [2] (22 hrs), 110 µM (≈ 23.6 µg/mL); in [2] (48 hrs), 220 µM (≈ 47.2 µg/mL). For the same compound, the MIC in the experiment on Listeria monocytogenes (22 hrs) is more than 880 µM; in the experiment on Listeria monocytogenes (48 hrs) it was more than 880 µM; with Enterococcus faecium (22 hrs) it was more than 880 µM; in the experiment on Enterococcus faecium (48 hrs), 220 µM (≈ 47.2 µg/mL); with Enterococcus faecalis (22 hrs) it was more than 880 µM; in the experiment with Enterococcus faecalis (48 hrs), 110 µM (≈ 23.6 µg/mL). In addition, the MIC was more than 880 µM with Bacillus subtilis (22 hrs); more than 880 µM with Bacillus subtilis (48 hrs); more than 880 µM in the experiment on Candida albicans (22 hrs); more than 880 µM in the experiment on Candida albicans (48 hrs); more than 880 µM in the experiment on Candida glabrata (22 h, 22 hrs); more than 880 µM in the experiment with Candida glabrata (48 h, 48 hrs).
